Key:
sigma receptor = conditions: result in words; cited from earlier work
sigma-1 = sigma-1 (Homo sapiens, UniProt Q99720); conditions: cited from earlier work
sigma-2 = sigma-2 (Homo sapiens, UniProt Q5BJF2); conditions: cited from earlier work
[1] = tested on: mechanical allodynia in STZ-induced mice; assay: von-Frey test, mechanical allodynia in STZ-induced diabetic mice; type: in vivo; conditions: paw withdrawal response to von-Frey filaments
Excerpt: The pancreatic β-cell cytotoxic agent STZ is widely used to induce diabetes in rodents. The glucosamine-nitrosourea compound STZ is taken up into the insulin-producing β-cells of the islets of Langerhan's via the GLUT-2 glucose transporter. The cytotoxic effect of STZ is mediated through a decrease in NAD levels, and the formation of intracellular free radicals leading to various toxic effects, including DNA-strand breaks (Schnedl et al., 1994). […] STZ-induced diabetic rodents show common features of human diabetes that include damage to the eye, kidney, blood vessels, and nervous system. Diabetic neuropathic pain occurs mainly due to the damage in the nervous system (Sima and Sugimoto, 1999).
Method: In the present study, diabetes is induced in mice by a single i.v. injection of STZ (200 mg/kg) as reported previously (Kamei et al., 1991; Rashid and Ueda, 2002). […] The plasma glucose level in the mice is measured in blood samples obtained from tail vein. […]
Thermal hyperalgesia and mechanical allodynia is measured at different time points (1-21 days) after STZ injection. Mechanical allodynia is measured using von-Frey filaments, a well-established method known by those skilled in the art, where the paw withdrawal response is measured. Similarly, thermal hyperalgesia is measured as the latency to paw withdrawal evoked by exposing the right hind paw to a thermal stimulus. […]

Chain of sigma-2 (Q5BJF2 whole entry): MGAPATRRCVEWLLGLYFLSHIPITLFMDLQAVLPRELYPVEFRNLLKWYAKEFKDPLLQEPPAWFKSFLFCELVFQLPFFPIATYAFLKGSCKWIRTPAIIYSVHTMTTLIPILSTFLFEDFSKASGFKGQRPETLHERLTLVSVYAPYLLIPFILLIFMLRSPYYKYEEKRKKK
Chain of sigma-1 (Q99720 whole entry): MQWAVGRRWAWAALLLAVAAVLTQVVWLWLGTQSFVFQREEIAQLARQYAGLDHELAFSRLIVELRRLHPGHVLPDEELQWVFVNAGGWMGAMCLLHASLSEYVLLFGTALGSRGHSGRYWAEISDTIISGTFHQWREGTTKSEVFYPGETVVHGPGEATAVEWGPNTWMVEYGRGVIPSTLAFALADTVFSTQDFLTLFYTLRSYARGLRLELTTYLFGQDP

SMILES	affinity to the sigma receptor (sigma receptor)	IC50 (sigma-1) [nM]	IC50 (sigma-2) [nM]	effect on mechanical allodynia in the von-Frey test [1]
CN1CCN(CCc2ccc(Cl)c(Cl)c2)CC1 [BD-1063, 1-(3,4-dichlorophenethyl)-4-methylpiperazine]	high affinity	30	800	significantly antagonizes mechanical allodynia
CC(C)=CCN1CCC2(C)c3cc(O)ccc3CC1C2C (centres unmarked) [pentazocine]	very high affinity	–	–	–

Source: patent US20090325975A1, “Use of compounds binding to the sigma receptor for the treatment of diabetes-associated pain” (priority 2005, published 2009)
